The text below walks through data of publication PMC11024795 (GeoHealth, 2024).

The structures appear in SMILES notation. Like-named read-outs stand apart in the source and are kept apart here.

The IC50 is the point on the concentration scale where inhibition reaches its midpoint.

The subject of series [1] is BV2 cells. In words: IC50 of OPPs-induced cytotoxicity in BV2 cells. The format is cell-based. To be noted: for IC50: read-out: IC50 values of OPPs in BV2 cells.
Series [2] concerns NLRP3, ASC, Caspase-1, IL-1β, IL-18 mRNA in BV2 cells. In words: RT-qPCR of NLRP3 inflammasome and inflammatory cytokine mRNA. The following applies: for expression of NLRP3, ASC, Caspase-1, IL-1β, IL-18 mRNA vs 0 μM OPPs / ASC mRNA expression, MCC950 intervention vs OPP alone / IL-1β mRNA expression, MCC950 intervention vs OPP alone / NLRP3 mRNA expression, MCC950 pre-treatment vs OPP alone: BV2 cells; for expression of NLRP3, ASC, Caspase-1, IL-1β, IL-18 mRNA vs 0 μM OPPs: 500 μM OPP, P < 0.0001; for ASC mRNA expression, MCC950 intervention vs OPP alone / IL-1β mRNA expression, MCC950 intervention vs OPP alone / NLRP3 mRNA expression, MCC950 pre-treatment vs OPP alone: OPP 500 μM. The series is classed as cell-based. In general terms: Real-time PCR tracks product formation cycle by cycle.

In series [3] the test system is IL-1β and IL-18 in extracellular medium of BV2 cells. In words: ELISA of IL-1β and IL-18 in culture supernatants. The format is cell-based. The following applies: P < 0.0001; for expression of IL-1β and IL-18 in the extracellular medium vs 0 μM OPPs: ELISA, BV2 cells, OPP 125, 250, 500 μM, 24 hr. A general note: ELISA stands for enzyme-linked immunosorbent assay.
In series [4] the target is hNLRP3 LRR recombinant protein (Homo sapiens, UniProt Q96P20). In words: Surface plasmon resonance. To be noted: for kon: read-out: association constant k a. The series is classed as binding. Background: SPR reads the build-up and loss of mass on a sensor chip optically.
The test system of series [5] is BV2 cells. In words: CCK-8 cell viability assay. The following applies: CCK-8, 125-1,000 μM, 24 hr; significant concentrations differ per compound. The format is cell-based.
Series [6] concerns BV2 cells. In words: LDH-based cytotoxicity assay. To be noted: 125-1,000 μM, 24 hr, significant concentrations differ per compound. The series is classed as cell-based.
Setting [7] is: SPR, Biacore 8K, CM5 chip, 25°C.

Sequence of hNLRP3 LRR recombinant protein (Q96P20 742-991 limits assumed): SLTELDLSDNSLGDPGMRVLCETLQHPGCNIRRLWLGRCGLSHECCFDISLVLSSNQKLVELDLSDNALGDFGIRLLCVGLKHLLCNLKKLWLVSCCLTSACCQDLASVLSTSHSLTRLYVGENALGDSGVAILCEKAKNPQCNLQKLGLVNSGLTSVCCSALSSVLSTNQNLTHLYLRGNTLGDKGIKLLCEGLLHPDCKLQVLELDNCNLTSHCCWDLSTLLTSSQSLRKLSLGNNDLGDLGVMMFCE

Take `CC(C)(O)c1coc(S(=O)(=O)NC(=O)Nc2c3c(cc4c2CCC4)CCC3)c1` [MCC950, reference compound]: the “cytotoxicity induced by OPPs in BV2 cells” value with BV2 cells [1] (MCC950 10 μM intervention, from IC50 shift) is given as “markedly decrease”. The “activation of the NLRP3 inflammasome and associated inflammatory cytokine mRNA expression in OPPs-treated BV2 cells” value in series [2] (MCC950 10 μM, OPPs 500 μM) is “reduced”. Further, the “IL-1β and IL-18 expression in the extracellular medium of OPPs-treated BV2 cells” value in series [3] (MCC950 10 μM vs OPPs treatment (125, 250, 500 μM)) was “significantly reduced”.
Consider `COP(=O)(OC)OC(Br)C(Cl)(Cl)Br` (stereo not shown) [dibrom], for which the IC50 with BV2 cells [1] (BV2 cells, OPPs 24 hr) stood at 585 µM. Besides, in series [2], the “Caspase-1 and IL-18 mRNA expressions, MCC950 intervention vs OPP alone” value is recorded as “significantly decreased”; the “expression of NLRP3, ASC, Caspase-1, IL-1β, IL-18 mRNA vs 0 μM OPPs” value (“expression of NLRP3, ASC … vs 0 μM OPPs” below) is listed as “significantly increased”. In series [2] (MCC950 10 μM), the “ASC mRNA expression, MCC950 intervention vs OPP alone” value (“ASC mRNA expression … vs OPP alone” below) is “decreased”; the “IL-1β mRNA expression, MCC950 intervention vs OPP alone” value (“IL-1β mRNA expression … vs OPP alone” below) is reported as “decreased”; the “NLRP3 mRNA expression, MCC950 pre-treatment vs OPP alone” value (from here on “NLRP3 mRNA expression … vs OPP alone”) is “significant decrease”. For the same compound, the “expression of IL-1β and IL-18 in the extracellular medium vs 0 μM OPPs” value in series [3] was “significantly increased”. Further, in series [4] (setting [7]), the “association constant k a” value is 76.5 M⁻¹ s⁻¹ and the “dissociation constant k d” value was found to be 0.206 s⁻¹. In addition, in series [4] (read-out: affinity constant K D, SPR, Biacore 8K, CM5 chip, 25°C), the Kd turned out to be 2690 µM.
In the case of `COP(=O)(OC)OC=C(Cl)Cl` [dichlorvos], the IC50 in the series on BV2 cells [1] (Mus musculus, BV-2, 24 h) stood at 274 µM. Also, the “cell viability of BV2 cells vs 0 μM OPPs” value with BV2 cells [5] is given as “significantly decreased”. The “cytotoxicity (LDH) in BV2 cells vs 0 μM OPPs” value (from here on “cytotoxicity … vs 0 μM OPPs”) in the series with BV2 cells [6] is on record as “significantly increased”. For the same compound, in series [2], the “Caspase-1 and IL-18 mRNA expressions, MCC950 intervention vs OPP alone” value was “significantly decreased”; the “expression of NLRP3, ASC … vs 0 μM OPPs” value is “significantly increased”. Besides, in series [2] (MCC950 10 μM), the “ASC mRNA expression … vs OPP alone” value is “decreased”; the “IL-1β mRNA expression … vs OPP alone” value is “decreased”; the “NLRP3 mRNA expression … vs OPP alone” value was “significant decrease”. Also, in series [3], the “expression of IL-1β and IL-18 in the extracellular medium vs 0 μM OPPs” value is on record as “significantly increased”. Besides, in series [4], the Kd is 1460 µM and the kon stood at 3.35 M⁻¹ s⁻¹. Moreover, the “dissociation constant k d” value in series [4] (setting [7]) is 0.00489 s⁻¹.
As to `CNC(=O)CSP(=S)(OC)OC` [dimethoate], in the series with BV2 cells [5], the “cell viability of BV2 cells vs 0 μM OPPs” value is “significantly decreased”. Moreover, the “cytotoxicity … vs 0 μM OPPs” value in the series on BV2 cells [6] is listed as “significantly increased”. In series [2], the “Caspase-1 and IL-18 mRNA expressions, MCC950 intervention vs OPP alone” value is “significantly decreased”; the “expression of NLRP3, ASC … vs 0 μM OPPs” value was “significantly increased”. Besides, in series [2] (MCC950 10 μM), the “ASC mRNA expression … vs OPP alone” value is “decreased”; the “IL-1β mRNA expression … vs OPP alone” value is “decreased”; the “NLRP3 mRNA expression … vs OPP alone” value is reported as “significant decrease”. In addition, in series [3], the “expression of IL-1β and IL-18 in the extracellular medium vs 0 μM OPPs” value is recorded as “significantly increased”. Moreover, in series [4], the Kd was 89.8 µM and the kon stood at 58.9 M⁻¹ s⁻¹. Also, the “dissociation constant k d” value in series [4] (setting [7]) stood at 0.00529 s⁻¹.
As for `COP(=O)(OC)C(O)C(Cl)(Cl)Cl` (stereo not shown) [dipterex], in the series with BV2 cells [1] (BV2 cells, OPPs 24 hr), the IC50 stood at 410 µM. Also, the “cell viability of BV2 cells vs 0 μM OPPs” value in the series on BV2 cells [5] is “significantly decreased”. Moreover, in the series on BV2 cells [6], the “cytotoxicity … vs 0 μM OPPs” value is on record as “significantly increased”. In series [2], the “Caspase-1 and IL-18 mRNA expressions, MCC950 intervention vs OPP alone” value is given as “significantly decreased”; the “expression of NLRP3, ASC … vs 0 μM OPPs” value was “significantly increased”. In series [2] (MCC950 10 μM), the “ASC mRNA expression … vs OPP alone” value is given as “decreased”; the “IL-1β mRNA expression … vs OPP alone” value was “decreased”; the “NLRP3 mRNA expression … vs OPP alone” value is given as “significant decrease”. The “expression of IL-1β and IL-18 in the extracellular medium vs 0 μM OPPs” value in series [3] is recorded as “significantly increased”. Moreover, the “affinity constant K D” value in series [4] (setting [7]) is reported as “No obvious binding”.
Turning to `COP(=S)(OC)Oc1ccc(SC)c(C)c1` [fenthion], the IC50 in the series on BV2 cells [1] (Mus musculus, BV-2, 24 h) is 2160 µM. Also, in the series with BV2 cells [5], the “cell viability of BV2 cells vs 0 μM OPPs” value is reported as “significantly decreased”. Also, in the series on BV2 cells [6], the “cytotoxicity … vs 0 μM OPPs” value is “significantly increased”. In series [2], the “Caspase-1 and IL-18 mRNA expressions, MCC950 intervention vs OPP alone” value was “significantly decreased”; the “expression of NLRP3, ASC … vs 0 μM OPPs” value is recorded as “significantly increased”. In addition, in series [2] (MCC950 10 μM), the “ASC mRNA expression … vs OPP alone” value is “decreased”; the “IL-1β mRNA expression … vs OPP alone” value is recorded as “decreased”; the “NLRP3 mRNA expression … vs OPP alone” value was “significant decrease”. Moreover, in series [3], the “expression of IL-1β and IL-18 in the extracellular medium vs 0 μM OPPs” value is “significantly increased”. Further, the “affinity constant K D” value in series [4] (setting [7]) is listed as “No obvious binding”.
In the case of `CCOP(=O)(OCC)Oc1ccc([N+](=O)[O-])cc1` [paraoxon], the IC50 in the series on BV2 cells [1] (BV2 cells, OPPs 24 hr) is 551 µM. Further, in the series on BV2 cells [5], the “cell viability of BV2 cells vs 0 μM OPPs” value is reported as “significantly decreased”. Also, the “cytotoxicity … vs 0 μM OPPs” value with BV2 cells [6] is on record as “significantly increased”. Besides, in series [2], the “Caspase-1 and IL-18 mRNA expressions, MCC950 intervention vs OPP alone” value is on record as “significantly decreased”; the “expression of NLRP3, ASC … vs 0 μM OPPs” value was “significantly increased”. Further, in series [2] (MCC950 10 μM), the “ASC mRNA expression … vs OPP alone” value is listed as “decreased”; the “IL-1β mRNA expression … vs OPP alone” value was “decreased”; the “NLRP3 mRNA expression … vs OPP alone” value is on record as “significant decrease”. In addition, the “expression of IL-1β and IL-18 in the extracellular medium vs 0 μM OPPs” value in series [3] is recorded as “significantly increased”. Besides, in series [4] (setting [7]), the “association constant k a” value is 14.2 M⁻¹ s⁻¹ and the “dissociation constant k d” value was found to be 0.00461 s⁻¹.
